Data from article PMC10148624, “Discovery of diarylpyrimidine derivatives bearing piperazine sulfonyl as potent HIV-1 nonnucleoside reverse transcriptase inhibitors” (Communications Chemistry, 2023).
In brackets after ≈: the same amount, converted by molar mass. Several values for one entry are separate records, joined by “and”; a condition that tells them apart may be missing. Equal entries are not always repeated. Where two headings read alike, the source gives them in different places.

Experiments:
WT HIV-1 RT = target: T1, WT HIV-1 RT (Human immunodeficiency virus type 1 group M subtype B, UniProt P04585); assay: biochemical; settings: read-out: IC50 against WT HIV-1 RT; inhibition of biotin deoxyuridine triphosphate incorporation into HIV-1 IIIB RT by 50%, mean ± SD, n = 2
T1 construct: purchased Roche
Procedure: Section 4. HIV-1 RT inhibition assays
A reverse transcriptase (RT) assay kit produced by Roche was selected for the RT inhibition assay.3 All the reagents for performing the RT reaction came with the kit and the ELSIA procedures for RT inhibition assay was carried out following the description in the kit protocol. Briefly, the reaction mixture containing template/primer complex, viral nucleotides (dNTPs) and RT in the incubation buffer with or without inhibitors was incubated for 1 h at 37 °C . After that, the reaction mixture was transferred to a streptavidine coated microtiter plate and incubated for another 1 h at 37 °C to make sure retranscriptional cDNA chain that consisted biotin labeled dNTPs bound to streptavidine. Then unbound dNTPs were removed using washing buffer and anti-DIG-POD working solution was added. After incubation for 1 h at 37 °C , the DIG-labeled dNTPs incorporated in cDNA were bound to the anti-DIG-POD antibody. The unbound

physchem = assay type: physicochemical; settings: pH 7, aqueous buffer, kinetic from dmso stock
Procedure: (§1) Section 7. Water solubility measurements
temperature overnight. The saturated solution was filtrated through a filter membrane
UV. The sample was performed in triplicate. For quantification, a model LC-20AT
The flow rate was 1.0 mL/min,
and injection volume was 20 μL. Aqueous concentration was determined by
Section 8. CYP enzyme inhibition assay

HIV-1 E138K = assay: microbe, parasite or virus in culture; assay type: cell-based; settings: Human immunodeficiency virus 1, MT4, read-out: EC50 E138K
Procedure: (§2) compounds were made directly in flat-bottomed 96-well microtiter trays by adding 100 μL medium to the 25 μL stock solution and transferring 25 μL of this solution to another well that contained 100 μL medium using a Biomek 3000 robot (Beckman Instruments, Fullerton, CA). Untreated control HIV- and mock-infected cell samples were included for each sample. HIV-1 WT strain (IIIB), HIV-1 drug-resistant strains including […]
(§3) (50% cell culture infectious dose) or culture medium was added to either the infected or mock-infected wells of the microtiter tray. Mock-infected cells were used to evaluate the effect of test compounds on uninfected cells in order to assess its cytotoxicity.
(§4) Exponentially growing MT-4 cells were centrifuged for 5 min at 1000 rpm and the supernatant was discarded.
(§5) 50 μL volumes were transferred to the microtiter tray wells. Five days after infection, the viability of mock- and HIV-infected cells was examined spectrophotometrically by […]
(§6) concentration of the test compound that reduced the viability of the mock-infected MT- […]

HIV-1 L100I = assay: microbe, parasite or virus in culture; assay type: cell-based; settings: Human immunodeficiency virus 1, MT4, read-out: EC50 L100I
Procedure: as §2, §3, §4, §5, §6

[1] = tested on: HIV-1 K103N/Y181C double mutant (RES056); assay: microbe, parasite or virus in culture; assay type: cell-based; settings: for EC50: Human immunodeficiency virus 1, MT4, read-out: EC50 RES056
Procedure: (§7) The biological results were determined as EC50 (anti-HIV potency), CC50 (cytotoxicity) and SI (selectivity index, the ratio of CC50/EC50). […]
as §2, §3, §4, §5, §6

HIV-1 WT (IIIB) [2] = assay: microbe, parasite or virus in culture; assay type: cell-based; settings: for EC50: Human immunodeficiency virus 1, IIIB; for SI IIIB: selectivity index, ratio of CC50/EC50
Procedure: as §7, §2, §3, §4, §5, §6

in vivo = settings: male, Sprague-Dawley, rat, plasma
Procedure: (§15) SpragueDawley (SD) rats (180−200 g) were randomly divided into two groups to
(§16) receive oral administration (10 mg/kg) or intravenous (2 mg/kg). A solution of
(§17) compound 18b1 was prepared by dissolving in a mixture of polyethylene glycol (PEG)
(§18) 400/normal saline (70/30, V/V) before the experiment. Blood samples (200 μL of blood
(§19) each times) of the intravenous group were collected from the sinus jugular into
(§20) h after dosing, and blood samples (200 μL of blood each times) of the oral
(§21) used to determine the concentration of 18b1 in plasma. Briefly, 50 μL of plasma was
(§22) and a 20 μL aliquot was injected for LCMS/MS analysis. Standard curves for 18b1 in
(§23) blood were generated by the addition of S10 various concentrations of 18b1 together

CYP2D6 = CYP2D6 (Homo sapiens, UniProt P10635); assay: in vitro; settings: human, microsomes, IC50 CYP2D6
Procedure: Fig. S3 Decomposition of the binding free energy (per-residue) into contributions from electrostatic energy, vdw energy, polar solvation energy, and non-polar solvation energy. a K103N-18b1. b […]
as §1
Water solubility was measured in phosphate buffer at pH 7.0 by using an HPLC-UV method.17 Compounds were initially dissolved in DMSO at 10 mg/mL 10 μL of this stock solution was spiked into purified water (1 mL) with the final DMSO concentration being 1%. The mixture was ultrasonic for 2 h at room temperature and restored at room temperature overnight. The saturated solution was filtrated through a filter membrane (pore size = 0.22 μm) and transferred to other Eppendorf tubes for analysis by HPLC-UV. The sample was performed in triplicate. For quantification, a model LC-20AT HPLC-UV (SHIMADZU) system was used with an Inertsil ® ODS-SP-C18 column (150 mm × 4.6 mm, 5 μm) and MeOH/water as eluant. The flow rate was 1.0 mL/min, and injection volume was 20 μL. Aqueous concentration was determined by comparison of the peak area of the saturated solution with a standard curve plotted peak area versus known concentrations, which were prepared by solutions in MeOH at 200, […]
(§8) Section 8. CYP enzyme inhibition assay […]
Section 9. Pharmacokinetics studies […]
approval from the Animal Ethical and Welfare Committee (AEWC). Ten male […]
Blood samples (200 μL of blood
Briefly, 50 μL of plasma was […]
tube, which was centrifuged at 3000g for 10 min. The supernatant layer was collected […]
Standard curves for 18b1 in […]
with an internal standard to blank plasma. Then all samples were quantified with an […]

HIV-1 Y188L = assay: Anti-HIV-1 activity against Y188L mutant strain, MTT method in MT-4 cells; assay type: cell-based; settings: Human immunodeficiency virus 1, MT4, read-out: EC50 Y188L
Text: (§9) According to the anti-HIV-1(WT) results, the promising compounds 18a(1–5), 18b(1–5) and 18c1 were chosen to further evaluate their inhibitory potency against the prevalent HIV-1 mutations, including L100I, K103N, Y181C, Y188L, E138K, and F227L/V106A. […]. page 20:
(§10) or mock-infected wells of the microtiter tray. Mock-infected cells were used to evaluate
(§11) supernatant was discarded.
(§12) Five days after infection,
(§13) 4 cells by 50%. […]

in vitro = settings: human
Procedure: as §7, §2, §3, §4, §5, §6

[3] = In vivo pharmacokinetics in Sprague-Dawley rats; settings: SD rat, 2.0 mg/kg i.v., mean ± SD, n = 3
Procedure: as §15, §16, §17, §18, §19, §20, §21, §22, §23

CYP2C9 = CYP2C9 (Homo sapiens, UniProt P11712); assay: in vitro; settings: human, microsomes
Text: as §8
(§14) Agilent 1200 LC/MSD (Agilent, USA).

CYP2C19 = CYP2C19 (Homo sapiens, UniProt P33261); assay: in vitro; settings: human, microsomes
Text: as §8, §14

HIV-1 F227L/V106A = assay: Anti-HIV-1 activity against F227L/V106A mutant strain, MTT method in MT-4 cells; assay type: cell-based; settings: for EC50: Human immunodeficiency virus 1, MT4, read-out: EC50 F227L/V106A
Text: as §9, §10, §11, §12, §13

HIV-1 Y181C = assay: Anti-HIV-1 activity against Y181C mutant strain, MTT method in MT-4 cells; assay type: cell-based; settings: for EC50: Human immunodeficiency virus 1, MT4, read-out: EC50 Y181C, MT-4 cells, MTT method, mean ± SD, n ≥ 4
Text: as §10, §11, §12, §13

HIV-1 K103N = assay: Anti-HIV-1 activity against K103N mutant strain, MTT method in MT-4 cells; assay type: cell-based; settings: Human immunodeficiency virus 1, MT4, read-out: EC50 K103N
Text: as §9, §10, §11, §12, §13

MT-4 cells = settings: mock-infected MT-4 cells, MTT method, same laboratory; cited from earlier work
HIV-1 WT (IIIB) [4] = settings: cited from earlier work
[5] = tested on: HIV-1 K103N/Y181C double mutant (RES056); settings: cited from earlier work
[6] = MT4, MT-4 cells, MTT method, mean ± SD, n ≥ 4, read-out: EC50 IIIB
[7] = MT-4 cells, MTT method, same laboratory, same method

Sequence of CYP2D6 (P10635 whole entry): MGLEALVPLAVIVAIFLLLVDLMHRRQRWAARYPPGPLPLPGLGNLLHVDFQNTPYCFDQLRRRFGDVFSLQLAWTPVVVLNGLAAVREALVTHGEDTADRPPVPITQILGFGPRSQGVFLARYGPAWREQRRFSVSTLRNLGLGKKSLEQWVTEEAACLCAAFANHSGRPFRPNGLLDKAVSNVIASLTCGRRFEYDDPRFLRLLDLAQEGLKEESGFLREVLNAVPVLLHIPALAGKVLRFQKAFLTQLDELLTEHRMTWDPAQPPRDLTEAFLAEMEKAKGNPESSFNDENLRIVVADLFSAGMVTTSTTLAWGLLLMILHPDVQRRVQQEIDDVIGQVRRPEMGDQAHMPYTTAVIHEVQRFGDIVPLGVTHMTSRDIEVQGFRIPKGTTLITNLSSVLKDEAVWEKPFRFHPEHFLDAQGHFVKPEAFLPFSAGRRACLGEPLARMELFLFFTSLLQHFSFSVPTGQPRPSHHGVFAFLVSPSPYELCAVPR
Sequence of CYP2C19 (P33261 whole entry): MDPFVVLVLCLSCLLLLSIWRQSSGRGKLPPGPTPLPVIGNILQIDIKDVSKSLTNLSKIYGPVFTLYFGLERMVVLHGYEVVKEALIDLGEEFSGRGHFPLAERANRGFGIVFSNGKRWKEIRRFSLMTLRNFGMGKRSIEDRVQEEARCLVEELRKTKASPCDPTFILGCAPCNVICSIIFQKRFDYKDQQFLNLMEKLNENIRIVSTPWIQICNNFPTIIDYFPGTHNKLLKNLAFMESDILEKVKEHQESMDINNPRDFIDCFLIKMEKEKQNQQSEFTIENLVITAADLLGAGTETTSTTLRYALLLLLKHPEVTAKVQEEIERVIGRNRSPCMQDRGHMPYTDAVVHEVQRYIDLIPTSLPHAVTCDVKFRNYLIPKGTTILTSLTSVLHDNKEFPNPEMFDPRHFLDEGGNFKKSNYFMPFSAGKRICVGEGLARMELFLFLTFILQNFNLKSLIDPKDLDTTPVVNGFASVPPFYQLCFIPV
Sequence of CYP2C9 (P11712 whole entry): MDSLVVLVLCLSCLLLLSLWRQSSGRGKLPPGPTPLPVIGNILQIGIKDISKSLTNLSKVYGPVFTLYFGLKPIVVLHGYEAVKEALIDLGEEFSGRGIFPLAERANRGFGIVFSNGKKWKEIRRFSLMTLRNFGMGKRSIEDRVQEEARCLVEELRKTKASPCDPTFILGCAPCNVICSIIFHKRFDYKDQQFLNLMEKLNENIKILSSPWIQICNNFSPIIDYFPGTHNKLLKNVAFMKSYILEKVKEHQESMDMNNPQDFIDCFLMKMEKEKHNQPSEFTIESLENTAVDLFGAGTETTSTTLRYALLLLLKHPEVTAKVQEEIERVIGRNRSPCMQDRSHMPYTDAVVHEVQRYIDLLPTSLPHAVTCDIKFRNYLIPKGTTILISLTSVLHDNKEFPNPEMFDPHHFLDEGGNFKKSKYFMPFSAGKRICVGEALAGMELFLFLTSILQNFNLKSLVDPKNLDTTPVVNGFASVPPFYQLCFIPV

Structure (SMILES): Cc1cc(/C=C/C#N)cc(C)c1Oc1ccnc(Nc2ccc(N3CCN(S(C)(=O)=O)CC3)c(C#N)c2)n1 [Compound 18b1]
- IC50 (WT HIV-1 RT): 93 ± 17 nM
- solubility (physchem): 13.5 ± 0.49 µg/mL (≈ 25.4 µM)
- EC50 (HIV-1 E138K): 6.4 ± 0.54 nM
- EC50 (HIV-1 L100I): 3.7 ± 0.62 nM
- EC50 [1]: 93 ± 19 nM
- SI RES056 ([1]; selectivity index, ratio of CC50/EC50): 110
- EC50 (HIV-1 WT (IIIB) [2]; MT4, read-out: EC50 IIIB): 1.4 ± 0.19 nM
- SI IIIB (HIV-1 WT (IIIB) [2]): 7171
- AUC(0-inf) (in vivo; iv, 2 mg/kg): 792 ± 74.9 ng·h/mL
- AUC(0-t) (in vivo; iv, 2 mg/kg): 785 ± 73.9 ng·h/mL
- Cmax (in vivo; iv, 2 mg/kg): 1230 ± 96.1 ng/mL
- Tmax (in vivo; iv, 2 mg/kg): 0.08 h
- clearance (in vivo; iv, 2 mg/kg): 42.3 mL/min/kg
- half-life (in vivo; iv, 2 mg/kg): 2.42 ± 0.34 h
- bioavailability (in vivo; oral, 10 mg/kg): 1.34%
- AUC(0-inf) (in vivo; po, 10 mg/kg): 53.2 ± 8.32 ng·h/mL
- AUC(0-t) (in vivo; po, 10 mg/kg): 45.1 ± 12.9 ng·h/mL
- Cmax (in vivo; po, 10 mg/kg): 16.1 ± 6.59 ng/mL
- Tmax (in vivo; po, 10 mg/kg): 3.5 ± 2.78 h
- half-life (in vivo; po, 10 mg/kg): 3.05 ± 1.44 h
- IC50 at 10 min (CYP2D6): > 10000 nM
- EC50 (HIV-1 Y188L): 740 ± 210 nM
- CC50 at 5 days (in vitro): 10200 ± 1820 nM
- V [3]: 8.81 L/kg and 8.81 ± 0.72 L/kg
- IC50 at 10 min (CYP2C9): 5300 nM
- IC50 at 10 min (CYP2C19): 8000 nM
- fold more potent than lead compound BH-11c (HIV-1 F227L/V106A; F227L/V106A strain, ratio of EC50): ~ 20 fold
- EC50 (HIV-1 F227L/V106A): 9.9 ± 1.6 nM
- EC50 (HIV-1 Y181C): 6.4 ± 0.67 nM
- fold potency enhancement over ETR (HIV-1 Y181C; Y181C strain, ratio of EC50): 2.8 fold
- EC50 (HIV-1 K103N): 1.7 ± 0.32 nM

Structure (SMILES): Cc1ccnc2c1NC(=O)c1cccnc1N2C1CC1 [NVP, Nevirapine]
- EC50 (HIV-1 L100I): 2230 ± 980 nM
- EC50 [1]: > 15000 nM
- EC50 (HIV-1 WT (IIIB) [2]; [6]): 190 ± 76 nM
- EC50 (HIV-1 Y188L): > 15000 nM
- CC50 at 5 days (in vitro): > 15000 nM
- EC50 (HIV-1 F227L/V106A): > 15000 nM
- EC50 (HIV-1 Y181C): 7400 ± 1780 nM
- EC50 (HIV-1 K103N): 6040 ± 2660 nM

Structure (SMILES): Cn1c(Cn2ccc(C(F)(F)F)c(Oc3cc(Cl)cc(C#N)c3)c2=O)n[nH]c1=O [DOR, doravirine]
- CC50 (MT-4 cells): > 294000 nM
- EC50 (HIV-1 WT (IIIB) [4]; [7]): 13 ± 4 nM
- SI IIIB (HIV-1 WT (IIIB) [4]; ratio of CC50/EC50): >21,940
- EC50 [5, 7]: 15 ± 6 nM
- SI RES056 ([5]; ratio of CC50/EC50): >20136

Structure (SMILES): O=C1Nc2ccc(Cl)cc2[C@@](C#CC2CC2)(C(F)(F)F)O1 [EFV, efavirenz]
- EC50 (HIV-1 E138K): 6.5 ± 1.7 nM
- EC50 (HIV-1 L100I): 53 ± 28 nM
- EC50 [1]: 300 ± 190 nM
- EC50 (HIV-1 WT (IIIB) [2]; [6]): 3.7 ± 0.67 nM
- EC50 (HIV-1 Y188L): 250 ± 56 nM
- CC50 at 5 days (in vitro): > 6330 nM
- EC50 (HIV-1 F227L/V106A): 260 ± 100 nM
- EC50 (HIV-1 K103N): 120 ± 24 nM

Structure (SMILES): CCS(=O)(=O)N1CCN(c2ccc(Nc3nccc(Oc4c(C)cc(C#N)cc4C)n3)cc2C#N)CC1 [Compound 17b2]
- EC50 [1]: > 241000 nM
- EC50 (HIV-1 WT (IIIB) [2]; [6]): 6.6 ± 1.7 nM
- SI IIIB (HIV-1 WT (IIIB) [2]): >36,585
- CC50 at 5 days (in vitro): > 241000 nM
